According to PubChem BioAssay AID1963831 (Molecular Pharmacology Branch, DTP, NCI, 2024):

Test system: 889142-216-R-J1-PDC complex spheroid viability
Test: Anticancer human tumor 889142-216-R-J1-PDC patient-derived bladder carcinoma cell line growth inhibition [POLQ]
Details: for IC50: curve of first compound; for viability, T/C: stronger effect = lower value; active = viability on the fitted dose curve at most 10% of control; inactive = the rest
Method in brief: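 Patient-derived tumour cells were co-cultured with HUVEC and mesenchymal stem cells as multicellular spheroids at 37 °C. They were treated with POLQ inhibitors (novobiocin, ART-558, RP6685) alone or combined with other agents. Top concentrations were at or near clinical Cmax (otherwise 10 microM; SN-38 at 1 microM), decreasing in half-log steps.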

[1] = second compound 0.0316 µM, first compound 0.0316 µM
[2] = second compound 0.0316 µM, first compound 0.1 µM
[3] = second compound 0.0316 µM, first compound 0.316 µM
[4] = second compound 0.0316 µM, first compound 1 µM
[5] = second compound 0.0316 µM, first compound 3.16 µM
[6] = second compound 0.0316 µM, first compound 10 µM
[7] = second compound 0.1 µM, first compound 0.0316 µM
[8] = second compound 0.1 µM, first compound 0.1 µM
[9] = second compound 0.1 µM, first compound 0.316 µM
[10] = second compound 0.1 µM, first compound 1 µM
[11] = second compound 0.1 µM, first compound 3.16 µM
[12] = second compound 0.1 µM, first compound 10 µM
[13] = second compound 0.316 µM, first compound 0.0316 µM
[14] = second compound 0.316 µM, first compound 0.1 µM
[15] = second compound 0.316 µM, first compound 0.316 µM
[16] = second compound 0.316 µM, first compound 1 µM
[17] = second compound 0.316 µM, first compound 3.16 µM
[18] = second compound 0.316 µM, first compound 10 µM
[19] = second compound 1 µM, first compound 0.0316 µM
[20] = second compound 1 µM, first compound 0.1 µM
[21] = second compound 1 µM, first compound 0.316 µM
[22] = second compound 1 µM, first compound 1 µM
[23] = second compound 1 µM, first compound 3.16 µM
[24] = second compound 1 µM, first compound 10 µM
[25] = second compound 3.16 µM, first compound 0.0316 µM
[26] = second compound 3.16 µM, first compound 0.1 µM
[27] = second compound 3.16 µM, first compound 0.316 µM
[28] = second compound 3.16 µM, first compound 1 µM
[29] = second compound 3.16 µM, first compound 3.16 µM
[30] = second compound 3.16 µM, first compound 10 µM
[31] = second compound 10 µM, first compound 0.0316 µM
[32] = second compound 10 µM, first compound 0.1 µM
[33] = second compound 10 µM, first compound 0.316 µM
[34] = second compound 10 µM, first compound 1 µM
[35] = second compound 10 µM, first compound 3.16 µM
[36] = second compound 10 µM, first compound 10 µM
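Note: spheroids exposed to compounds for seven days.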
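Throughout, for viability, T/C: 100% = DMSO vehicle control viability.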

COc1cc(C2c3cc4c(cc3C(OC3OC5COC(C)OC5C(O)C3O)C3COC(=O)C23)OCO4)cc(OC)c1O (stereo unspecified) + Cc1cccc(N(C)C(=O)C2C(O)CCN2c2nc(C)cc(C(F)(F)F)c2C#N)c1
4.63 µM: IC50 (second compound 10 µM)
inactive: viability, T/C [1] 83.9% | viability, T/C [2] 74.5% | viability, T/C [3] 65.3% | viability, T/C [4] 53.5% | viability, T/C [5] 65.1% | viability, T/C [6] 66% | viability, T/C [7] 82.6% | viability, T/C [8] 85.2% | viability, T/C [9] 70.9% | viability, T/C [10] 56.4% | viability, T/C [11] 68.5% | viability, T/C [12] 57.6% | viability, T/C [13] 93.1% | viability, T/C [14] 86.9% | viability, T/C [15] 59.4% | viability, T/C [16] 64% | viability, T/C [17] 70.1% | viability, T/C [18] 52.6% | viability, T/C [19] 86.2% | viability, T/C [20] 83.6% | viability, T/C [21] 62% | viability, T/C [22] 45.9% | viability, T/C [23] 70.6% | viability, T/C [24] 58.8% | viability, T/C [25] 83% | viability, T/C [26] 81.2% | viability, T/C [27] 64.2% | viability, T/C [28] 62.1% | viability, T/C [29] 62.4% | viability, T/C [30] 52.4% | viability, T/C [31] 77.4% | viability, T/C [32] 74.1% | viability, T/C [33] 61% | viability, T/C [34] 61% | viability, T/C [35] 59.8% | viability, T/C [36] 40.4%
> 10 µM: IC50 (second compound 0.0316 µM) | IC50 (second compound 0.1 µM) | IC50 (second compound 0.316 µM) | IC50 (second compound 1 µM) | IC50 (second compound 3.16 µM)

CC1COCCN1c1cc(C2(O)CC3CCC(C2)O3)c2cnn(-c3ccn[nH]3)c2n1 (stereo unspecified) + Nc1ccc(C#CCN(C(=O)Cc2ncc(C(F)(F)F)cc2C(F)(F)F)c2ccc(F)cc2)nn1
0.0997 µM: IC50 (second compound 1 µM)
0.108 µM: IC50 (second compound 10 µM)
0.121 µM: IC50 (second compound 3.16 µM)
0.251 µM: IC50 (second compound 0.1 µM)
inactive: viability, T/C [1] 63.7% | viability, T/C [2] 47.1% | viability, T/C [3] 39.1% | viability, T/C [4] 35.1% | viability, T/C [5] 30.5% | viability, T/C [6] 20.3% | viability, T/C [7] 67.2% | viability, T/C [8] 56.4% | viability, T/C [9] 49.4% | viability, T/C [10] 39.4% | viability, T/C [11] 31.6% | viability, T/C [12] 26.1% | viability, T/C [13] 71.9% | viability, T/C [14] 62% | viability, T/C [15] 40.9% | viability, T/C [16] 35% | viability, T/C [17] 27% | viability, T/C [18] 20% | viability, T/C [19] 64.5% | viability, T/C [20] 47.3% | viability, T/C [21] 37.4% | viability, T/C [22] 35.4% | viability, T/C [23] 29.6% | viability, T/C [24] 19.4% | viability, T/C [25] 57.8% | viability, T/C [26] 49.3% | viability, T/C [27] 44.8% | viability, T/C [28] 36% | viability, T/C [29] 31.2% | viability, T/C [30] 16.6% | viability, T/C [31] 67% | viability, T/C [32] 44.3% | viability, T/C [33] 42.1% | viability, T/C [34] 31.2% | viability, T/C [35] 26.8% | viability, T/C [36] 16.2%
0.209 µM: IC50 (second compound 0.316 µM)
0.101 µM: IC50 (second compound 0.0316 µM)

CCc1cc2c(N3CCc4c(cc(Cn5ccnc5)cc4-c4cn(C)nc4C(F)(F)F)C3=O)ccnc2c(OC)n1 + Nc1ccc(C#CCN(C(=O)Cc2ncc(C(F)(F)F)cc2C(F)(F)F)c2ccc(F)cc2)nn1
> 10 µM: IC50 (second compound 0.0316 µM) | IC50 (second compound 0.1 µM) | IC50 (second compound 0.316 µM) | IC50 (second compound 1 µM) | IC50 (second compound 3.16 µM) | IC50 (second compound 10 µM)
inactive: viability, T/C [1] 98% | viability, T/C [2] 105% | viability, T/C [3] 116% | viability, T/C [4] 137% | viability, T/C [5] 103% | viability, T/C [6] 80.2% | viability, T/C [7] 115% | viability, T/C [8] 117% | viability, T/C [9] 104% | viability, T/C [10] 125% | viability, T/C [11] 99.2% | viability, T/C [12] 117% | viability, T/C [13] 98.8% | viability, T/C [14] 107% | viability, T/C [15] 116% | viability, T/C [16] 124% | viability, T/C [17] 127% | viability, T/C [18] 82.1% | viability, T/C [19] 103% | viability, T/C [20] 93.7% | viability, T/C [21] 125% | viability, T/C [22] 123% | viability, T/C [23] 99% | viability, T/C [24] 105% | viability, T/C [25] 105% | viability, T/C [26] 104% | viability, T/C [27] 120% | viability, T/C [28] 124% | viability, T/C [29] 111% | viability, T/C [30] 105% | viability, T/C [31] 118% | viability, T/C [32] 101% | viability, T/C [33] 129% | viability, T/C [34] 135% | viability, T/C [35] 120% | viability, T/C [36] 92.8%
